{
  "source": "patent US20140045823A1",
  "about": "(Neurocrine Biosciences, Inc., priority 2012, published 2014)",
  "data": [
    {"molecular_target": "T1, human GPR119 (Homo sapiens, UniProt Q8TDV5)", "T1 construct": "expression vector for human GPR119 cDNA (Acc. No. NP_848566); expressed in transfected cells; Min-6/hGPR119", "T1 sequence (Q8TDV5 1-335)": "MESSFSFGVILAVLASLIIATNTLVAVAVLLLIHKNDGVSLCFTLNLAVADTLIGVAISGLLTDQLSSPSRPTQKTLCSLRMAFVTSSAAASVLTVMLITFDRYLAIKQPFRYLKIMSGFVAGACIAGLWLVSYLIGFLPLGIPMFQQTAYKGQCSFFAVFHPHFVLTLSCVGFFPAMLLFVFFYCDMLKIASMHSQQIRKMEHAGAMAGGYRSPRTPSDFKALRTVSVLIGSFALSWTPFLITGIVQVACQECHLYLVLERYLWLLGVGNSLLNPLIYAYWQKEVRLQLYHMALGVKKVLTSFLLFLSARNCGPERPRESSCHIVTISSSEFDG", "assay": "AlphaScreen cAMP assay in MIN6 cells stably transfected with human GPR119", "type": "cell-based", "settings": "Min-6/hGPR119 cells, 45 min at room temperature", "in_short": "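cAMP accumulation quantified by AlphaScreen after 45 min compound stimulation at about 20 °C. Stimulation buffer: pH 7.4 HEPES saline with 0.5 mM IBMX, 0.1% BSA, 1% DMSO final. Cells: MIN6 stably transfected with human GPR119, 10000/well, cultured 24 h beforehand.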", "units": {"EC50": "nM"}, "values": [
      {"smiles": "CC(C)(C)OC(=O)N1CCC(N(C(=O)c2ncc(-c3ccc(S(C)(=O)=O)cc3)cn2)C2CC2)CC1", "note": "[Example 68, 4-{Cyclopropyl-[5-(4-methanesulfonyl-phenyl)-pyrimidine-2-carbonyl]-amino}-piperidine-1-carboxylic acid tert-butyl ester]", "EC50": 544},
      {"smiles": "CC(C)(C)OC(=O)N1CCC(N(C(=O)c2cnc(-c3ccc(C(=O)NCCS(C)(=O)=O)c(F)c3)nc2)C2CC2)CC1", "note": "[Example 123, 4-(Cyclopropyl-{2-[3-fluoro-4-(2-methanesulfonyl-ethylcarbamoyl)-phenyl]-pyrimidine-5-carbonyl}-amino)-piperidine-1-carboxylic acid tert-butyl ester]", "EC50": 637},
      {"smiles": "COCC(C)NC(=O)Cc1ccc(-c2ncc(C(=O)N(C3CC3)C3CCN(C(=O)OC(C)(C)C)CC3)cn2)cc1", "note": "(stereo not drawn) [Example 198, 4-[Cyclopropyl-(2-{4-[(2-methoxy-1-methyl-ethylcarbamoyl)-methyl]-phenyl}-pyrimidine-5-carbonyl)-amino]-piperidine-1-carboxylic acid tert-butyl ester]", "EC50": 715},
      {"smiles": "CC(C)(C)OC(=O)N1CCC(N(C(=O)c2cnc(-n3cnc(CO)c3)nc2)C2CC2)CC1", "note": "[Example 94, 4-{Cyclopropyl-[2-(4-hydroxymethyl-imidazol-1-yl)-pyrimidine-5-carbonyl]-amino}-piperidine-1-carboxylic acid tert-butyl ester]", "EC50": 349},
      {"smiles": "CN(Cc1ccncc1)C(=O)c1ccc(-c2ncc(C(=O)N(C3CC3)C3CCN(C(=O)OC(C)(C)C)CC3)cn2)cc1F", "note": "[Example 139, 4-(Cyclopropyl-{2-[3-fluoro-4-(methyl-pyridin-4-ylmethyl-carbamoyl)-phenyl]-pyrimidine-5-carbonyl}-amino)-piperidine-1-carboxylic acid tert-butyl ester]", "EC50": 263},
      {"smiles": "CC(C)(C)OC(=O)N1CCC(N(C(=O)c2cnc(-c3ccc(C(=O)NCC4CCOC4)c(F)c3)nc2)C2CC2)CC1", "note": "(stereo not drawn) [Example 131, 4-[Cyclopropyl-(2-{3-fluoro-4-[(tetrahydro-furan-3-ylmethyl)-carbamoyl]-phenyl}-pyrimidine-5-carbonyl)-amino]-piperidine-1-carboxylic acid tert-butyl ester]", "EC50": 175},
      {"smiles": "CC(C)(C)OC(=O)N1CCC(N(C(=O)c2ncc(-c3ccc(C#N)cc3)o2)C2CC2)CC1", "note": "[Example 37, 4-{[5-(4-Cyano-phenyl)-oxazole-2-carbonyl]-cyclopropyl-amino}-piperidine-1-carboxylic acid tert-butyl ester]", "EC50": 142},
      {"smiles": "CC(C)(C)OC(=O)N1CCC(N(C(=O)c2coc(-c3ccc(S(C)(=O)=O)cc3F)n2)C2CC2)CC1", "note": "[Example 25]", "EC50": 97},
      {"smiles": "CC(C)(C)OC(=O)N1CCC(N(C(=O)c2cnc(-c3ccc(C#N)cc3)o2)C2CC2)CC1", "note": "[Example 35, 4-{[2-(4-Cyano-phenyl)-oxazole-5-carbonyl]-cyclopropyl-amino}-piperidine-1-carboxylic acid tert-butyl ester]", "EC50": 136},
      {"smiles": "CC(C)(C)OC(=O)N1CCC(N(C(=O)c2cnc(-c3ccc(CC(=O)N4CCC[C@H]4C#N)cc3)nc2)C2CC2)CC1", "note": "[Example 214, 4-[(2-{4-[2-(2-Cyano-pyrrolidin-1-yl)-2-oxo-ethyl]-phenyl}-pyrimidine-5-carbonyl)-cyclopropyl-amino]-piperidine-1-carboxylic acid tert-butyl ester]", "EC50": 418},
      {"smiles": "CC(C)(C)OC(=O)N1CCC(N(C(=O)c2cnc(-n3cnnc3)nc2)C2CC2)CC1", "note": "[Example 100, 4-[Cyclopropyl-(2-[1,2,4]triazol-4-yl-pyrimidine-5-carbonyl)-amino]-piperidine-1-carboxylic acid tert-butyl ester]", "EC50": 810},
      {"smiles": "CCOCCNC(=O)c1ccc(-c2ncc(C(=O)N(C3CC3)C3CCN(C(=O)OC(C)(C)C)CC3)cn2)cc1F", "note": "[Example 102, 4-(Cyclopropyl-{2-[4-(2-ethoxy-ethylcarbamoyl)-3-fluoro-phenyl]-pyrimidine-5-carbonyl}-amino)-piperidine-1-carboxylic acid tert-butyl ester]", "EC50": 109}
    ]}
  ]
}
